Data reported in ChEMBL document CHEMBL2021794, “Synthesis, σ₁, σ₂-receptors binding affinity and antiproliferative action of new C1-substituted adamantanes” (Bioorg Med Chem, 2012).
Active and inactive are the calls of the source. No cut-off for these calls is given here.

Experiments:
PC-3 [1] = test: Cytotoxicity against human PC3 cells after 48 hrs by trypan blue assay; assay type: functional, cell-based
SF-295 [2] = test: Cytotoxicity against human SF295 cells after 48 hrs by trypan blue assay; assay type: functional, cell-based
U-251 [3] = test: Cytotoxicity against human U251 cells after 48 hrs by trypan blue assay; assay type: functional, cell-based
PC-3 [4] = test: Growth inhibition of human PC3 cells after 48 hrs by SRB assay; assay type: functional; conditions: PC-3, 48 h
BXPC-3 [5] = test: Induction of apoptosis in human BxPC3 cells assessed as healthy cells at 50 uM after 24 hrs by Annexin V/7-AAD staining based flow cytometry (reference value: 77%); assay type: functional
BXPC-3 [6] = test: Induction of apoptosis in human BxPC3 cells assessed as total apoptotic death cells at 50 uM after 24 hrs by Annexin V/7-AAD staining based flow cytometry (reference value: 20%); assay type: functional
IGROV-1 [7] = test: Cell cycle arrest in human IGROV1 cells assessed as accumulation at < G1 phase at 0.5 uM after 24 hrs by propidium iodide staining based flow cytometry (reference value: 4%); assay type: functional
IGROV-1 [8] = test: Cell cycle arrest in human IGROV1 cells assessed as accumulation at >G2 phase at 0.5 uM after 24 hrs by propidium iodide staining based flow cytometry (reference value: 21%); assay type: functional
IGROV-1 [9] = test: Induction of apoptosis in human IGROV1 cells assessed as cleaved caspase-3 containing cells at 0.5 uM after 24 hrs by FACS analysis (reference value: 4%); assay type: functional
IGROV-1 [10] = test: Induction of apoptosis in human IGROV1 cells assessed as early apoptotic cells at 0.5 uM after 24 hrs by Annexin V/7-AAD staining based flow cytometry (reference value: 9%); assay type: functional
IGROV-1 [11] = test: Induction of apoptosis in human IGROV1 cells assessed as late apoptotic cells at 0.5 uM after 24 hrs by Annexin V/7-AAD staining based flow cytometry (reference value: 4%); assay type: functional
IGROV-1 [12] = test: Cell cycle arrest in human IGROV1 cells assessed as accumulation at G1 phase at 5 uM after 24 hrs by propidium iodide staining based flow cytometry (reference value: 27%); assay type: functional
IGROV-1 [13] = test: Cell cycle arrest in human IGROV1 cells assessed as accumulation at G1 phase at 15 uM after 24 hrs by propidium iodide staining based flow cytometry (reference value: 27%); assay type: functional
IGROV-1 [14] = test: Induction of apoptosis in human IGROV1 cells assessed as late apoptotic cells at 50 uM after 24 hrs by Annexin V/7-AAD staining based flow cytometry (reference value: 4%); assay type: functional
IGROV-1 [15] = test: Cytotoxicity against human IGROV1 cells at 50 uM; assay type: functional, cell-based
PC-3 [16] = test: Cell cycle arrest in human PC3 cells assessed as accumulation at S phase at 15 uM after 24 hrs by propidium iodide staining based flow cytometry (reference value: 42%); assay type: functional
PC-3 [17] = test: Cell cycle arrest in human PC3 cells assessed as accumulation at >G2 phase at 15 uM after 24 hrs by propidium iodide staining based flow cytometry (reference value: 6%); assay type: functional
PC-3 [18] = test: Induction of apoptosis in human PC3 cells assessed as cleaved caspase-3 containing cells at 15 uM after 24 hrs by FACS analysis (reference value: 3%); assay type: functional
PC-3 [19] = test: Cell cycle arrest in human PC3 cells assessed as accumulation at G2 phase at 50 uM after 24 hrs by propidium iodide staining based flow cytometry (reference value: 13%); assay type: functional
PC-3 [20] = test: Cell cycle arrest in human PC3 cells assessed as accumulation at >G2 phase at 50 uM after 24 hrs by propidium iodide staining based flow cytometry (reference value: 6%); assay type: functional
PC-3 [21] = test: Induction of apoptosis in human PC3 cells assessed as late apoptotic cells at 50 uM after 24 hrs by Annexin V/7-AAD staining based flow cytometry (reference value: 2%); assay type: functional
Mus musculus [22] = test: Analgesic activity against formalin-induced neuropathic pain in paclitaxel treated CD1 mouse assessed as decrease of time spent in paw licking at 100 mg/kg, po administered 14 days post paclitaxel dosing and 1 hr prior formalin challenge measured for 0 to 5 mins post formalin challenge; assay type: functional, organism-based; parameters: dose 100 mg/kg
Mus musculus [23] = test: Analgesic activity against formalin-induced neuropathic pain in paclitaxel treated CD1 mouse assessed as decrease of time spent in paw licking at 100 mg/kg, po administered 14 days post paclitaxel dosing and 1 hr prior formalin challenge measured for 35 to 40 mins post formalin challenge; assay type: functional, organism-based; parameters: dose 100 mg/kg
SF-295 [24] = test: Growth inhibition of human SF295 cells after 48 hrs by SRB assay; assay type: functional; conditions: SF-295, 48 h
U-251 [25] = test: Growth inhibition of human U251 cells after 48 hrs by SRB assay; assay type: functional; conditions: U-251, 48 h
H69AR = test: Growth inhibition of human H69AR cells after 48 hrs by SRB assay; assay type: functional
BXPC-3 [26] = test: Growth inhibition of human BxPC3 cells after 48 hrs by SRB assay; assay type: functional; conditions: BXPC-3, 48 h
BXPC-3 [27] = test: Antitumor activity against human BxPC3 cells xenografted in SCID mouse assessed as reduction in tumor volume at 40 mg/kg, ip for 5 consecutive days and 2 administrations for one more week; assay type: functional; conditions: BXPC-3, ip, route intraperitoneal
MIA PaCa-2 = test: Antitumor activity against human MIAPaCa2 cells xenografted in SCID mouse assessed as tumor weight at 70 mg/kg, ip for 3 consecutive days (reference value: 1225 +/- 308 mg); assay type: functional; conditions: route intraperitoneal
BXPC-3 [28] = test: Induction of apoptosis in human BxPC3 cells assessed as early apoptotic cells at 0.5 uM after 24 hrs by Annexin V/7-AAD staining based flow cytometry (reference value: 11%); assay type: functional
BXPC-3 [29] = test: Cell cycle arrest in human BxPC3 cells assessed as accumulation at < G1 phase at 5 uM after 24 hrs by propidium iodide staining based flow cytometry (reference value: 9%); assay type: functional
BXPC-3 [30] = test: Cell cycle arrest in human BxPC3 cells assessed as accumulation at G2 phase at 5 uM after 24 hrs by propidium iodide staining based flow cytometry (reference value: 12%); assay type: functional
BXPC-3 [31] = test: Cell cycle arrest in human BxPC3 cells assessed as accumulation at < G1 phase at 15 uM after 24 hrs by propidium iodide staining based flow cytometry (reference value: 9%); assay type: functional
BXPC-3 [32] = test: Induction of apoptosis in human BxPC3 cells assessed as cleaved caspase-3 containing cells at 15 uM after 24 hrs by FACS analysis (reference value: 10%); assay type: functional
BXPC-3 [33] = test: Induction of apoptosis in human BxPC3 cells assessed as healthy cells at 15 uM after 24 hrs by Annexin V/7-AAD staining based flow cytometry (reference value: 77%); assay type: functional
BXPC-3 [34] = test: Induction of apoptosis in human BxPC3 cells assessed as early apoptotic cells at 15 uM after 24 hrs by Annexin V/7-AAD staining based flow cytometry (reference value: 11%); assay type: functional
BXPC-3 [35] = test: Induction of apoptosis in human BxPC3 cells assessed as late apoptotic cells at 15 uM after 24 hrs by Annexin V/7-AAD staining based flow cytometry (reference value: 9%); assay type: functional
[36] = read-out: LC50 (the source's name)

## CN1CCN(c2ccc(C(c3ccccc3)C34CC5CC(CC(C5)C3)C4)cc2)CC1 (configuration not stated)
PC-3 [1]
  Activity: Active
SF-295 [2]
  Activity: Active
U-251 [3]
  Activity: Active
PC-3 [4]
  GI50: 6.8 µM
  TGI: 32.9 µM
PC-3 [4]; [36]
  CC50: 100 µM
BXPC-3 [5]
  Activity: 26%
BXPC-3 [6]
  Activity: 48%
IGROV-1 [7]
  Activity: 3%
IGROV-1 [8]
  Activity: 20%
IGROV-1 [9]
  Activity: 5%
IGROV-1 [10]
  Activity: 8%
IGROV-1 [11]
  Activity: 3%
IGROV-1 [12]
  Activity: 25%
IGROV-1 [13]
  Activity: 21%
IGROV-1 [14]
  Activity: 16%
IGROV-1 [15]
  Activity: Active
PC-3 [16]
  Activity: 33%
PC-3 [17]
  Activity: 5%
PC-3 [18]
  Activity: 3%
PC-3 [19]
  Activity: 10%
PC-3 [20]
  Activity: 11%
PC-3 [21]
  Activity: 9%
Mus musculus [22]
  Activity: Active
Mus musculus [23]
  Activity: Active
SF-295 [24]
  GI50: 11 µM
  TGI: 48.1 µM
SF-295 [24]; [36]
  CC50: 85.2 µM
U-251 [25]
  GI50: 4 µM
  TGI: 6.57 µM
U-251 [25]; [36]
  CC50: 9.14 µM
H69AR
  GI50: 6.04 µM
  TGI: 18.4 µM
H69AR; [36]
  CC50: 90.5 µM
BXPC-3 [26]
  GI50: 3.84 µM
  LC50: 16.6 µM
  TGI: 6.96 µM
BXPC-3 [27]
  inhibition in vivo at 40 mg/kg: 37.8%
MIA PaCa-2
  Activity: 642 mg
BXPC-3 [28]
  Activity: 10%
BXPC-3 [29]
  Activity: 8%
BXPC-3 [30]
  Activity: 12%
BXPC-3 [31]
  Activity: 8%
BXPC-3 [32]
  Activity: 11%
BXPC-3 [33]
  Activity: 60%
BXPC-3 [34]
  Activity: 12%
BXPC-3 [35]
  Activity: 16%
